Values of other authors as cited in patent US20070281007A1, “Mucoadhesive Oral Formulations of High Permeability, High Solubility Drugs” (priority 2004, published 2007).
Read-outs that look alike come from different tables or passages of the source.

Row | SMILES | bioavailability (at best, 900 mg dose, given three times a day) | bioavailability (in vivo)
1 | NCC1(CC(=O)O)CCCCC1 [gabapentin] | 60% | 
2 | CC(C)[C@H](N)C(=O)OCCOCn1cnc2c(=O)[nH]c(N)nc21 [valacyclovir] |  | ~50%
